Calls of active or inactive are those of the source.
What was measured:
[1] = target: T1, Short transient receptor potential channel 4 (Mus musculus, UniProt Q9QUQ5); assay: mouse TRPC4 channel activators, dose response, cell-based, HEK293 TRPC4/mu-opioid, Fluo-4 calcium (AID 434937); assay type: functional
T1 sequence (Q9QUQ5 whole entry): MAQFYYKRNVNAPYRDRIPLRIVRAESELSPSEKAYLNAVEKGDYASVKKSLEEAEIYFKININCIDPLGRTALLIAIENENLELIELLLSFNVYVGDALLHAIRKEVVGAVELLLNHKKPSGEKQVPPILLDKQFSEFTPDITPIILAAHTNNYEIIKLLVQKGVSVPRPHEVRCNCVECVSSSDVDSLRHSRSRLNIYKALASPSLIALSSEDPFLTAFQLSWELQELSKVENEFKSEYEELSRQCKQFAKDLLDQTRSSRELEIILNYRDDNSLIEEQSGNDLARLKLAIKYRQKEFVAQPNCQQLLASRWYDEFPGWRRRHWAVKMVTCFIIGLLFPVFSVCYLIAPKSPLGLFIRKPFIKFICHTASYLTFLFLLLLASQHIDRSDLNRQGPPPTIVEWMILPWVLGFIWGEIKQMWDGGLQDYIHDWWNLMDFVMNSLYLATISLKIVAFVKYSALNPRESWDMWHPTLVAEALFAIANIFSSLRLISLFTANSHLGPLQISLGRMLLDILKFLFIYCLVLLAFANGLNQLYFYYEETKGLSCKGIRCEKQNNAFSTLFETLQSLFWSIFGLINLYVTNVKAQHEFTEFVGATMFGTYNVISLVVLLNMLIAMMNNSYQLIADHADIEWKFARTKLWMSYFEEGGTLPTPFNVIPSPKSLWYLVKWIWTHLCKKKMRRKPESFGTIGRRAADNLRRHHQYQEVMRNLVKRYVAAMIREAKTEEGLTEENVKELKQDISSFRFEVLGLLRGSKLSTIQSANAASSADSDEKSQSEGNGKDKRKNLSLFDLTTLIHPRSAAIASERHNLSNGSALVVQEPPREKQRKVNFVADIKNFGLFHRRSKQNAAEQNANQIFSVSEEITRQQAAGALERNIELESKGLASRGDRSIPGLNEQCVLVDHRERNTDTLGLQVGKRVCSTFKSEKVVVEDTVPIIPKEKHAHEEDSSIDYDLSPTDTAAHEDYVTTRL

[2] = target: Peroxisome proliferator-activated receptor gamma/Nuclear receptor coactivator 2 (Homo sapiens, UniProt P37231); assay: (§1) TR-FRET dose response biochemical High Throughput Screening assay for agonists of the steroid receptor coactivator 2 (SRC-2) recruitment by the peroxisome proliferator-activated receptor gamma (PPAR gamma): non-selective agonists. [Related pubchem assays: 1297, 1032 ]; assay type: functional
Peroxisome proliferator-activated receptor gamma/Nuclear receptor coactivator 2, sequence (P37231 whole entry): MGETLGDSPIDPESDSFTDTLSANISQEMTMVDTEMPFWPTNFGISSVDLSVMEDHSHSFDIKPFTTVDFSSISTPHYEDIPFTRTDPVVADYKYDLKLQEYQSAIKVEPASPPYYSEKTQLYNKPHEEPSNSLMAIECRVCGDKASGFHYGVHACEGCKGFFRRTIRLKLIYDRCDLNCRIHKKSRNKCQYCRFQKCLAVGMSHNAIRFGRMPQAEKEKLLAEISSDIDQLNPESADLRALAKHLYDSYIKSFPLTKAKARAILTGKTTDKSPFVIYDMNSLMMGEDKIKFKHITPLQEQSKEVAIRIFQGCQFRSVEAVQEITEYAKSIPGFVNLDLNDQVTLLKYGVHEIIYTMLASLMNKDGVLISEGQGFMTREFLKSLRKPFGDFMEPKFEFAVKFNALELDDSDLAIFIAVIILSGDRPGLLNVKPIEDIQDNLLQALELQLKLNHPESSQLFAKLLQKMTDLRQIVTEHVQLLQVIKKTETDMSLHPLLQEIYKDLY
Peroxisome proliferator-activated receptor gamma/Nuclear receptor coactivator 2, sequence (Q15596 whole entry, further chain): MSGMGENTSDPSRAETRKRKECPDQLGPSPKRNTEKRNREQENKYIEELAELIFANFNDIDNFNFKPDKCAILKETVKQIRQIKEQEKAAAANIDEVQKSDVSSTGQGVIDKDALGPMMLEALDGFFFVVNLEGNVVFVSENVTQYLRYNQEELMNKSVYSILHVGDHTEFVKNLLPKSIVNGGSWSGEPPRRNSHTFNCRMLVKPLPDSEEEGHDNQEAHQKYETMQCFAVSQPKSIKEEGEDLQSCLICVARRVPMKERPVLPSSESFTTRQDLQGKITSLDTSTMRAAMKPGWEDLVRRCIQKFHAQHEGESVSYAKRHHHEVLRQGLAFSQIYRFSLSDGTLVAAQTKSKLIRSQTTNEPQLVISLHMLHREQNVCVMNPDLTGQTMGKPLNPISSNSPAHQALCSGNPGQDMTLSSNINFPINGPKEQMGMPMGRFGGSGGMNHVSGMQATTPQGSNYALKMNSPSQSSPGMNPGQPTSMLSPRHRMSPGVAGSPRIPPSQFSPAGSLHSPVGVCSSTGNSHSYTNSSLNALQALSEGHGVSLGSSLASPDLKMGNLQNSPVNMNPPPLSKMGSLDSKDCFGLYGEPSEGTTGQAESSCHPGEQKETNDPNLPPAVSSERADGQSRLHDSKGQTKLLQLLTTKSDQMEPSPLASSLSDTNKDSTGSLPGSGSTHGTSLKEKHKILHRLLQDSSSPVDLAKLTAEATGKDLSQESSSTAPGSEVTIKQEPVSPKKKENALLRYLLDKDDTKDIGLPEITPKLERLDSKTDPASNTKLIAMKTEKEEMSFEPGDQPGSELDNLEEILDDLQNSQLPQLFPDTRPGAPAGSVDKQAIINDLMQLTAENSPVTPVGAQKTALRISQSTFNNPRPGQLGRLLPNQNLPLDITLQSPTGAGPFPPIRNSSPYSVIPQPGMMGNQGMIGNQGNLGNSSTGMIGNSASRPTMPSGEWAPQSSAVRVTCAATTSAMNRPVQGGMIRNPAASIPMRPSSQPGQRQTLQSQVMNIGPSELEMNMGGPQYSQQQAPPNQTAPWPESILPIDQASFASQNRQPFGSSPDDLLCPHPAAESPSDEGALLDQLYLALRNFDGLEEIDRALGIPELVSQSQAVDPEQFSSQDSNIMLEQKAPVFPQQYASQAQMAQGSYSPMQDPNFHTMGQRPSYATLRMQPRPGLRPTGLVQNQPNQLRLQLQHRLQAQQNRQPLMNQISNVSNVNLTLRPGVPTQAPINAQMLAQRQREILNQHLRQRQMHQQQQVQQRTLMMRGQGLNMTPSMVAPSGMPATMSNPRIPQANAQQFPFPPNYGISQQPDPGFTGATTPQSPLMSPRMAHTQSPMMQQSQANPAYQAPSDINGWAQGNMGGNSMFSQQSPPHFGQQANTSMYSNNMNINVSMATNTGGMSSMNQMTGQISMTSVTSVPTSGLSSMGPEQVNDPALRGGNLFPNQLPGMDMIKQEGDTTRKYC

[3] = target: T2, Glutathione-S-transferase (Schistosoma japonicum, UniProt Q26513); assay: biotin-GST/anti-GST TR-FRET signal inhibitors, dose response, artefact control for Vif-APOBEC3G degradation inhibitor project, biochemical (AID 1117362); assay type: functional
T2 sequence (Q26513 whole entry): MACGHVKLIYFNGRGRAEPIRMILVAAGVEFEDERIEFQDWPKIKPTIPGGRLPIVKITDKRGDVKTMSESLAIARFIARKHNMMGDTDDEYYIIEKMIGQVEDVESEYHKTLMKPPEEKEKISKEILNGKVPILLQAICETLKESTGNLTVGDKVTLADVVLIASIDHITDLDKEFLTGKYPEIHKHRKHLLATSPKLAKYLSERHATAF

[4] = target: Peroxisome proliferator-activated receptor gamma/Nuclear receptor coactivator 3 (Homo sapiens, UniProt P37231); assay: as §1, with “3 (SRC-3)” for “2 (SRC-2)”, “1301 (Confirmation screen.), 1048 (Primary screen.)]” for “1297, 1032 ]”; assay type: functional
Peroxisome proliferator-activated receptor gamma/Nuclear receptor coactivator 3, sequence (P37231 whole entry): as the sequence (P37231 whole entry) above
Peroxisome proliferator-activated receptor gamma/Nuclear receptor coactivator 3, sequence (Q9Y6Q9 whole entry, further chain): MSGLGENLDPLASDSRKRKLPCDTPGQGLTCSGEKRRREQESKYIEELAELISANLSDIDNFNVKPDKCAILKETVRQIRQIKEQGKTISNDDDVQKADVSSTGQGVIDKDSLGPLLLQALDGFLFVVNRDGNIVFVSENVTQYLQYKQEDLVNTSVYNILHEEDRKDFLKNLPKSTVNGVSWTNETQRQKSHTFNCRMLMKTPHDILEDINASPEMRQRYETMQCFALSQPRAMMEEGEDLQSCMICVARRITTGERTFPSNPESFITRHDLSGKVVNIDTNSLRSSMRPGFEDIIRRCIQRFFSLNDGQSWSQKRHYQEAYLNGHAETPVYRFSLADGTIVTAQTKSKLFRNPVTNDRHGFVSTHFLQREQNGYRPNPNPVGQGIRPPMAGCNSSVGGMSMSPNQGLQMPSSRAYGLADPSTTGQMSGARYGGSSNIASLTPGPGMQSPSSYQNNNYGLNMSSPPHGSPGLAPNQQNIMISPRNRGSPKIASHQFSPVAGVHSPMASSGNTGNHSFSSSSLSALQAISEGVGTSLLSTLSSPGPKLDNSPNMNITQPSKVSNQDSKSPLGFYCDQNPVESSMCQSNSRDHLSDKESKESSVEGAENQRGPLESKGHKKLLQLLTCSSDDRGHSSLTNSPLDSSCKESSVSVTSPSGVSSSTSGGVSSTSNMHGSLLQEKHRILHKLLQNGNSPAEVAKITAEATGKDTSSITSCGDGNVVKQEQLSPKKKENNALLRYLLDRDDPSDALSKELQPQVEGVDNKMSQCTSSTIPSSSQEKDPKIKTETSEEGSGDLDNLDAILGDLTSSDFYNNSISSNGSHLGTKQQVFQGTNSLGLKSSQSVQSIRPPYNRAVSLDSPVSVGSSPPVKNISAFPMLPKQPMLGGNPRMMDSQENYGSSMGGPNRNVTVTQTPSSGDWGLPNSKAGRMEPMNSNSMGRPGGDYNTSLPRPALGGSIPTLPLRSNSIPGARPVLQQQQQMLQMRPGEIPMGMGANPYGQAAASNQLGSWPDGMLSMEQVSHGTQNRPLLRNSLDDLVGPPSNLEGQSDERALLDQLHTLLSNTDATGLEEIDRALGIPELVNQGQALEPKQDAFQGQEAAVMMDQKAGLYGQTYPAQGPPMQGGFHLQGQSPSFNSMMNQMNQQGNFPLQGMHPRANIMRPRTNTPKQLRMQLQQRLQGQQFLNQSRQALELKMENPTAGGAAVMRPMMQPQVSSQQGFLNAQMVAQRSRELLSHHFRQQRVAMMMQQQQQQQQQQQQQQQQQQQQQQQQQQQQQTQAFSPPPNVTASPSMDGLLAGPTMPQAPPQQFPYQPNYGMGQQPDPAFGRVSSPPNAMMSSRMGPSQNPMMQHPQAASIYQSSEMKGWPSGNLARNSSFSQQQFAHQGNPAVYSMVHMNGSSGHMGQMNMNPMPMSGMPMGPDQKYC

[5] = target: Peroxisome proliferator-activated receptor gamma/Nuclear receptor coactivator 1 (Homo sapiens, UniProt P37231); assay: as §1, with “1 (SRC-1)” for “2 (SRC-2)”, “assays (depositor defined):AID1300, AID1808, AID504735, AID631]” for “assays: 1297, 1032 ]”; assay type: protein assay
[6] = target: T3, Ubiquitin-conjugating enzyme E2 N (Homo sapiens, UniProt P61088); assay type: functional
T3 sequence (P61088 whole entry): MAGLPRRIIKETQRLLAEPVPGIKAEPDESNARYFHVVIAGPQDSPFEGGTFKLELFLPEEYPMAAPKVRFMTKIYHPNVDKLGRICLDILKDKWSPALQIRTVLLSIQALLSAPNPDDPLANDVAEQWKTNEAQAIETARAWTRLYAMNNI

[7] = target: T3, Ubiquitin-conjugating enzyme E2 N; assay type: functional; remark: listed apart in the source
Bcl-2-related protein A1 = target: T4, Bcl-2-related protein A1 (Mus musculus, UniProt Q07440); assay type: functional;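 note: confirmatory dose–response counterscreen on Bfl-1, used to check hits from a UBC13 polyubiquitin inhibitor campaign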
T4 sequence (Q07440 whole entry): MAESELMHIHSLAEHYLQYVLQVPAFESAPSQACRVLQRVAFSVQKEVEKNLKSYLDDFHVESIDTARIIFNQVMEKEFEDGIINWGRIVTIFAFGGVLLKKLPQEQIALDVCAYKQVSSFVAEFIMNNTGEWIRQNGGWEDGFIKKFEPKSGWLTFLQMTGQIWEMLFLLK

[8] = target: Alkaline phosphatase, placental type (Homo sapiens, UniProt P05187); assay: PLAP enzyme inhibitors, confirmation, biochemical, luminescence (AID 1512); assay type: functional
[9] = target: T5, Alkaline phosphatase, tissue-nonspecific isozyme (Homo sapiens, UniProt P05186); assay: human TNAP enzyme inhibitors, SAR follow-up, biochemical, luminescent, dose response (AID 1056)
T5 sequence (P05186 whole entry): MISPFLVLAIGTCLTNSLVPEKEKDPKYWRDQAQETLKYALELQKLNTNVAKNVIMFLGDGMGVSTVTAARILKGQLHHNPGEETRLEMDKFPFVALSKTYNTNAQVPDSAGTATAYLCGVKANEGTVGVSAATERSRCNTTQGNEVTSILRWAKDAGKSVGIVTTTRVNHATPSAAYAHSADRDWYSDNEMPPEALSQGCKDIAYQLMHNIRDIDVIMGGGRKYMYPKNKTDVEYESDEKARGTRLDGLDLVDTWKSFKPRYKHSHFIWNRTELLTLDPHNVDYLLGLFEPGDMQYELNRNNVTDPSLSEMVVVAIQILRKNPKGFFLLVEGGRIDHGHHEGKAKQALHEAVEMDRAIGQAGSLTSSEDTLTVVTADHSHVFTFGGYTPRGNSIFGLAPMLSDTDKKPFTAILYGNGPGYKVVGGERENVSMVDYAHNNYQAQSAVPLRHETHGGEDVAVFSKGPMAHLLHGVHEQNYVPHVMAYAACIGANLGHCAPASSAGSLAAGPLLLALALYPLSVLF

[10] = target: DNA dC->dU-editing enzyme APOBEC-3G (Homo sapiens, UniProt Q9HC16); assay type: functional;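 note: Dose-response counterscreen measuring inhibition of APOBEC3G DNA deaminase activity, run while confirming APOBEC3A inhibitors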
[11] = target: DNA dC->dU-editing enzyme APOBEC-3A (Homo sapiens, UniProt P31941); assay: Dose Response confirmation of small molecule APOBEC3A DNA Deaminase Inhibitors via a fluorescence-based single-stranded DNA deaminase assay. [Related pubchem assays (depositor defined):AID493011, AID493024]; assay type: functional
DNA dC->dU-editing enzyme APOBEC-3A, sequence (P31941 whole entry): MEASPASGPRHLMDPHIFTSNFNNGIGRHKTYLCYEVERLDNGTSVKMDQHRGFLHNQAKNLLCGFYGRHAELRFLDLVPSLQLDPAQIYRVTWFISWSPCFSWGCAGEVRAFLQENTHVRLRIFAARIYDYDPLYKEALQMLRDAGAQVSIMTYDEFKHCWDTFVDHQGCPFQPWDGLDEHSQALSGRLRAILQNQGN

[12] = NIH-3T3 fibroblast cytotoxicity, dose response, cytotoxicity control, cell-based, fluorescence, Alamar Blue, secondary assay (AID 2327); assay type: functional;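 note: NIH-3T3 mouse fibroblasts cultured with fluconazole at 8 µg/mL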
[13] = C. albicans growth with fluconazole, confirmation, fluorescence, retest (AID 2467); assay type: functional, cell-based
Streptokinase A = target: T6, Streptokinase A (Streptococcus pyogenes serotype M1, UniProt P10520); assay: S. pyogenes streptokinase expression inhibitors, potency, dose response, plasminogen activation absorbance, OD405 (AID 1914); assay type: functional, Streptococcus pyogenes M1 GAS;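 note: secreted streptokinase activity via plasminogen activation per viability signal from cell pellet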
T6 sequence (P10520 whole entry): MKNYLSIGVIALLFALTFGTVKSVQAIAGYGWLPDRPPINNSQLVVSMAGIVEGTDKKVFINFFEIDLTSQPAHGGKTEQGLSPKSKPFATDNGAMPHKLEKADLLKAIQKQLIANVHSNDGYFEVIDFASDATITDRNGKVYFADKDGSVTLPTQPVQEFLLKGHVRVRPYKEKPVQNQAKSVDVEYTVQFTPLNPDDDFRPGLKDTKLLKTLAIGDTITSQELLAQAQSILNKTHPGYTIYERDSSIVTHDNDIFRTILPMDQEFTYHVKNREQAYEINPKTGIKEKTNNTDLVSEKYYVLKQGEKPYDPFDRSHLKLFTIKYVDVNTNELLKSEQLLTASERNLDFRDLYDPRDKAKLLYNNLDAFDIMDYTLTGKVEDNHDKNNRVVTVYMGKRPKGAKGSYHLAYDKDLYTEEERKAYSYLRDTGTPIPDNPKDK

[14] = target: T7, Kappa-type opioid receptor (Homo sapiens, UniProt P41145); assay type: functional
T7 sequence (P41145 whole entry): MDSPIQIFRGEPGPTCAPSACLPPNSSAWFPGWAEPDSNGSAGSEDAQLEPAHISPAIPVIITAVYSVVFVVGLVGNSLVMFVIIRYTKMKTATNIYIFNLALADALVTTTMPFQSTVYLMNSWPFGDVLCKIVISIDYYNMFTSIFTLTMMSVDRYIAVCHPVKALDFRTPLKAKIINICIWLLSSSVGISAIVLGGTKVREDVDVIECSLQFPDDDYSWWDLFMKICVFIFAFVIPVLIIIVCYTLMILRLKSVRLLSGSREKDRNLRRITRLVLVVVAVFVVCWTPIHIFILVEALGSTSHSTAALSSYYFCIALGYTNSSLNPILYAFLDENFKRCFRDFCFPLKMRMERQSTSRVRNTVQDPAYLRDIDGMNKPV

Beta-galactosidase = Beta-galactosidase (Escherichia coli, UniProt Q8VNN2); assay type: functional
[15] = target: T7, Kappa-type opioid receptor; assay type: functional; remark: listed apart in the source
[16] = tested on: Streptococcus sp. 'group A'; assay: growth inhibition of control SK(-) GAS strain, dose response, counter-screen for streptokinase expression inhibitor project, luminescence, kanamycin, BacTiterGlo, confirmation (AID 1900); assay type: functional, organism-based
[17] = target: T8, Delta-type opioid receptor (Homo sapiens, UniProt P41143); assay: HTS Image-Based Screen for Antagonists of the DOR Receptor. [Related pubchem assays (depositor defined):AID1777, AID1785, AID1786, AID2133]; assay type: functional
T8 sequence (P41143 whole entry): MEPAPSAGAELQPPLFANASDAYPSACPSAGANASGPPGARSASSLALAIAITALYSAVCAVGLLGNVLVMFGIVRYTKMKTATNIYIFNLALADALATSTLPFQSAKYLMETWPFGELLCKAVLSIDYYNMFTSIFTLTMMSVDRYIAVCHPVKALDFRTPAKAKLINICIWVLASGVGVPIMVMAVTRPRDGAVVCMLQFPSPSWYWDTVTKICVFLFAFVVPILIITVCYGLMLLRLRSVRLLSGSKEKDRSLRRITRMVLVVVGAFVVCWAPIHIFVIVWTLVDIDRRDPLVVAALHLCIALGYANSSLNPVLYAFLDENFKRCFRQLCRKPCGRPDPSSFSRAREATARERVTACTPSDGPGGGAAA

Mu-type opioid receptor = Mu-type opioid receptor (Homo sapiens, UniProt P35372); assay: HTS Image-Based Screen for Agonists of the MOR Receptor. [Related pubchem assays (depositor defined):AID1777, AID1785, AID1786, AID2133]; assay type: functional;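 note: imaging of beta-arrestin GFP recruitment into spots after receptor activation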
Streptococcus = assay: Group A Streptococcus viability loss, dose response, counter-screen for streptokinase expression inhibitor project, luminescence, BacTiterGlo (AID 1915); assay type: functional, organism-based;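 note: potency for reduction of bacterial viability or growth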
[18] = target: T8, Delta-type opioid receptor; assay: HTS Image-Based Screen for Agonists of the DOR Receptor. [Related pubchem assays (depositor defined):AID1777, AID1786, AID2133]; assay type: functional

## O=C(CC1C(=O)NCCN1Cc1cccc(Oc2ccccc2)c1)NCCc1ccccn1 (centres undefined)
[1]
  EC50: 4.73 µM (active)

## Cc1ccc(C)n1-c1ccc(-c2nnc3n2CCCCC3)s1
[2]
  EC50: 38.7 µM (not active)
[3]
  IC50: 86.7 µM (active)
[4]
  EC50: > 79.4 µM (not active)
[5]
  EC50: > 79.4 µM (inactive)

## CCOc1ccc(NS(=O)(=O)c2cc(C(=O)NCCCN3CCOCC3)ccc2C)cc1
[6]
  IC50: 9.23 µM (active)
[7]
  IC50: 10.5 µM (active)
Bcl-2-related protein A1
  IC50: > 20 µM (inactive)

## COc1ccccc1-c1nc(SCC(=O)c2ccc(O)c(O)c2)n[nH]1
[8]
  IC50: 14.8 µM (active)
[9]
  IC50: 3.34 µM (active)

## Cc1ccc(NC(=O)C2CCCN2C(=O)c2cccs2)c(C)c1 (centres undefined)
[10]
  IC50: 6.6 µM (active)
[11]
  IC50: 3.76 µM (active)

## CCn1c(=S)[nH]c2scc(-c3cccs3)c2c1=O
[2]
  EC50: 11.1 µM (not active)
[12]
  EC50: > 160 µM (inactive)
[4]
  EC50: > 79.4 µM (not active)
[13]
  EC50: 1.23 µM (active)
[5]
  EC50: 8.82 µM (active)

## CCCc1nc2oc3c(Cl)ncnc3c2c2c1CCCC2
Streptokinase A
  EC50: > 150 µM (not active)
[14]
  IC50: 4.64 µM (active)
Beta-galactosidase
  EC50: > 31.5 µM (inactive)
[15]
  IC50: > 32 µM
[16]
  EC50: > 150 µM (not active)
[17]
  IC50: > 32 µM (inactive)
Mu-type opioid receptor
  EC50: > 32 µM (inactive)
Streptococcus
  EC50: > 150 µM (not active)
[18]
  EC50: > 32 µM (inactive)

## Cc1cc(-c2ccc(Br)s2)nc(-n2cccc2)n1
[2]
  EC50: 19.3 µM (not active)
[4]
  EC50: > 79.4 µM (not active)
[5]
  EC50: > 79.4 µM (inactive)

From ChEMBL document CHEMBL1201862, “PubChem BioAssay data set” (2004)
